According to patent publication US10294202B2, “Pyrrolidinones as herbicides” (FMC Corporation, priority 2013, dated 2019):

Assays:
ragweed = assay: Test C pre-/postemergence herbicide test; type: in vivo, Ambrosia elatior; conditions: Preemergence
From the text: (§1) Seeds of plant species selected from blackgrass (Alopecurus myosuroides), ryegrass, Italian (Italian ryegrass, Lolium multiflorum), wheat (winter wheat, Triticum aestivum), galium (catchweed bedstraw, Galium aparine), corn (Zea mays), crabgrass, large (large crabgrass, Digitaria sanguinalis), foxtail, giant (giant foxtail, Setaria faberii), johnsongrass (Sorghum halepense), lambsquarters (Chenopodium album), morningglory (Ipomoea coccinea), nutsedge, yellow (yellow nutsedge, Cyperus esculentus), pigweed (Amaranthus retroflexus), ragweed (common ragweed, Ambrosia elatior), soybean (Glycine max), barnyardgrass (Echinochloa crus-galli), oilseed rape (Brassica napus), waterhemp (common waterhemp, Amaranthus rudis), kochia (Kochia scoparia), oat, wild (wild oat, Avena fatua), surinam grass (Brachiaria decumbens), foxtail, green (green foxtail, Setaria viridis), goosegrass (Eleusine indica), bromegrass, downy (downy bromegrass, Bromus tectorum), nightshade (eastern black nightshade, Solanum ptycanthum), cocklebur (common cocklebur, Xanthium strumarium), cupgrass, woolly (woolly cupgrass, Eriochloa villosa), bermudagrass (Cynodon dactylon), sunflower, (common oilseed sunflower, Helianthus annuus), Russian thistle (Salsola kali) and velvetleaf (Abutilon theophrasti) were planted into a blend of loam soil and sand and treated preemergence with test chemicals formulated in a non-phytotoxic solvent mixture which included a surfactant. At the same time, plants selected from these crop and weed species and also barley (winter barley, Hordeum vulgare), […]), chickweed (common chickweed, Stellaria media), deadnettle (henbit deadnettle, Lamium amplexicaule), and canarygrass (littleseed canarygrass, Phalaris minor) were planted in pots containing Redi-Earth® planting medium (Scotts Company, 14111 Scottslawn Road, Marysville, Ohio 43041) comprising spaghnum peat moss, vermiculite, wetting agent and starter nutrients and treated with postemergence applications of test chemicals formulated in the same manner. Plants ranged in height from 2 to 18 cm (1- to 4-leaf stage) for postemergence treatments. Treated plants and controls were maintained in a greenhouse for 13 to 15 days, after which time all species were compared to controls and visually evaluated. Plant response ratings, summarized in Table C, are based on a scale of 0 to 100 where 0 is no effect and 100 is complete control. A dash (-) response means no test result.

corn = assay: Test A pre-/postemergence herbicide test; type: in vivo, Zea mays; conditions: for Corn plant response rating: Preemergence
Outline: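 Planted in loam–sand blend; treated the same day preemergence by directed soil spray, while separately grown plants at one- to two-leaf stage got postemergence spray. Compared visually with untreated controls after approximately 10 days; 100 means complete control.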

johnsongrass = assay: Test C pre-/postemergence herbicide test; type: in vivo, Sorghum halepense; conditions: Preemergence; for Plant response rating (scale of 0 to 100), Johnsongrass: 250 g ai/ha
Outline: (§2)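 Test compounds, formulated in a surfactant-containing non-phytotoxic solvent blend, are applied to seeded loam/sand soil (preemergence) and to young plants at the 1- to 4-leaf stage in peat-based medium (postemergence). Plants stay 13 to 15 days under greenhouse conditions, then are scored visually relative to controls, 0 = no effect, 100 = complete control.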

soybean = assay: Test C pre-/postemergence herbicide test; type: in vivo, Glycine max; conditions: Preemergence
From the text: as §1

morningglory = assay: Test C pre-/postemergence herbicide test; type: in vivo, Ipomoea coccinea; conditions: Preemergence; for Plant response rating (scale of 0 to 100), Morningglory: 250 g ai/ha
From the text: as §1

oat, wild = assay: Test C pre-/postemergence herbicide test; type: in vivo, Avena fatua; conditions: Preemergence
From the text: as §1

lambsquarters = assay: Test C pre-/postemergence herbicide test; type: in vivo, Chenopodium album; conditions: Preemergence; for Plant response rating (scale of 0 to 100), Lambsquarters: 250 g ai/ha
From the text: as §1

rice = assay: Test B flooded paddy test; type: in vivo, Oryza sativa; conditions: Flood, scale of 0 to 100 where 0 is no effect and 100 is complete control
Outline: (§3)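 Paddy-water application at a 3 cm flood, young plants having two leaves. Water level maintained; greenhouse, 13–15 days; visual 0–100 control rating.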

barnyardgrass = assay: Test C pre-/postemergence herbicide test; type: in vivo, Echinochloa crus-galli; conditions: Preemergence; for Plant response rating (scale of 0 to 100; 0 is no effect, 100 is complete control), Barnyardgrass: 250 g ai/ha
From the text: as §1

sedge, umbrella = assay: Test B flooded paddy test; type: in vivo, Cyperus difformis; conditions: Flood, scale of 0 to 100 where 0 is no effect and 100 is complete control
Outline: as §3

waterhemp = assay: Test C pre-/postemergence herbicide test; type: in vivo, Amaranthus rudis; conditions: Preemergence; for Plant response rating, Waterhemp: 125 g ai/ha
Outline: as §2

[1] = 125 g ai/ha, scale 0 to 100 (0 no effect, 100 complete control)
[2] = Postemergence, 500 g ai/ha, 0 to 100 scale (0 no effect, 100 complete control)
[3] = 125 g ai/ha, visual rating on 0 to 100 scale (0 no effect, 100 complete control)
[4] = 31 g ai/ha, scale 0 to 100, 0 is no effect and 100 is complete control
[5] = 62 g ai/ha, scale 0 to 100 (0 no effect, 100 complete control)
[6] = Postemergence, 125 g ai/ha, visual rating on 0 to 100 scale (0 no effect, 100 complete control), approx. 10 days

Compound	Plant response rating, Ragweed (ragweed; [1])	Plant response rating, Corn (corn; [2])	Plant response rating, Johnsongrass (johnsongrass; [1])	Plant response rating, Soybean (soybean; [1])	Plant response rating, Morningglory (morningglory; [1])	Ragweed plant response rating (ragweed; [5])	Lambsquarters plant response rating (lambsquarters; [4])	Lambsquarters plant response rating (lambsquarters; [5])	Plant response rating (scale of 0 to 100), Lambsquarters (lambsquarters)	Johnsongrass plant response rating (johnsongrass; [4])	Johnsongrass plant response rating (johnsongrass; [5])	Plant response rating (scale of 0 to 100), Johnsongrass (johnsongrass)	Soybean plant response rating (soybean; [5])	Barnyardgrass plant response rating (barnyardgrass; [4])	Plant response rating, Barnyardgrass (barnyardgrass; [1])	Plant response rating (scale of 0 to 100; 0 is no effect, 100 is complete control), Barnyardgrass (barnyardgrass)	Waterhemp plant response rating (waterhemp; [5])	Morningglory plant response rating (morningglory; [4])	Morningglory plant response rating (morningglory; [5])	Plant response rating (scale of 0 to 100), Morningglory (morningglory)	other results
O=C1NCC(c2ccc(Cl)c(Cl)c2)C1C(=O)Nc1ccccc1F (racemic) [Compound 14]	0	0	0	0	0																Plant response rating, Ragweed (ragweed; 62 g ai/ha, scale 0 to 100): 0; Plant response rating, Corn (corn; Postemergence, 125 g ai/ha, 0 to 100 scale, 0 no effect, 100 complete control): 0; Corn plant response rating (corn; [3]): 0; Plant response rating, Corn (corn; preemergence, 500 g ai/ha, 0 to 100 scale): 0; Plant response rating, Johnsongrass (johnsongrass; 62 g ai/ha, scale 0 to 100): 0; Plant response rating, Soybean (soybean; 62 g ai/ha, scale 0 to 100): 0; Plant response rating, Morningglory (morningglory; 62 g ai/ha, scale 0 to 100): 0; Plant response rating, Oat, Wild (oat, wild; 62 g ai/ha, scale 0 to 100): 0; Plant response rating, Oat, Wild (oat, wild; [1]): 0
O=C1NCCC1C(=O)N(c1ccc(F)c(F)c1)c1ccccc1F (centres unmarked) [Compound 5, N-(3,4-difluorophenyl)-N-(2-fluorophenyl)-2-oxo-3-pyrrolidinecarboxamide]	0		0	0	0																Plant response rating, Ragweed (ragweed; 62 g ai/ha, scale 0 to 100): 0; Corn plant response rating (corn; [3]): 0; Corn plant response rating (crop injury, 0 = no effect, 100 = complete kill) at 125 g/ha (corn; Zea mays, post-emergence, 240 h, Postemergence, 125 g ai/ha, 0 to 100 scale, 0 no effect, 100 complete control): 0%; Corn plant response rating (crop injury, 0 = no effect, 100 = complete kill) at 500 g/ha (corn; Zea mays, post-emergence, 240 h, Postemergence, 500 g ai/ha, 0 to 100 scale (0 no effect, 100 complete control)): 0%; Corn plant response rating (crop injury, 0 = no effect, 100 = complete kill) at 500 g/ha (corn; Zea mays, pre-emergence, 240 h, preemergence, 500 g ai/ha, 0 to 100 scale): 0%; Plant response rating, Lambsquarters (lambsquarters; 62 g ai/ha, scale 0 to 100): 95; Plant response rating, Lambsquarters (lambsquarters; [1]): 95; Plant response rating, Johnsongrass (johnsongrass; 62 g ai/ha, scale 0 to 100): 0; Plant response rating, Soybean (soybean; 62 g ai/ha, scale 0 to 100): 0; Plant response rating, Morningglory (morningglory; 62 g ai/ha, scale 0 to 100): 0; Plant response rating, Oat, Wild (oat, wild; 62 g ai/ha, scale 0 to 100): 0; Plant response rating, Oat, Wild (oat, wild; [1]): 0
O=C1NCC(c2ccc(C(F)(F)F)cc2)C1C(=O)Nc1ccccc1F (centres unmarked) [Compound 231]	80		45	0	0	100	40	85	100	0	10	60	0	85	95	95	85	0	0	20	Ragweed plant response rating (ragweed; [4]): 80; Plant response rating (scale of 0 to 100), Ragweed (ragweed; 250 g ai/ha): 85; Plant response rating, Corn (corn; Postemergence, 125 g ai/ha, 0 to 100 scale, 0 is no effect, 100 is complete control): 30; Corn plant response rating (0 to 100 scale, 0 is no effect, 100 is complete control) (corn; Postemergence, 500 g ai/ha): 40; Plant response rating, Lambsquarters (lambsquarters; [1]): 85; Plant response rating, Rice (rice; 500 g ai/ha): 0; Soybean plant response rating (soybean; [4]): 0; Plant response rating (scale of 0 to 100), Soybean (soybean; 250 g ai/ha): 5; Plant response rating, Barnyardgrass (barnyardgrass; 62 g ai/ha, scale 0 to 100): 90; Plant response rating, Sedge, Umbrella (sedge, umbrella; 500 g ai/ha): 0; Waterhemp plant response rating (waterhemp; [4]): 75; Plant response rating, Waterhemp (waterhemp; scale 0 to 100 (0 no effect, 100 complete control)): 100; Plant response rating (scale of 0 to 100), Waterhemp (waterhemp; 250 g ai/ha): 95
CC(C)c1cccc(C2CNC(=O)C2C(=O)Nc2ccccc2F)c1 (centres unmarked) [Compound 318]		50				0	10	55	60	0	0	60	0	80	95	95	30	30	40	40	Plant response rating, Ragweed (ragweed; 125 g ai/ha, scale 0 to 100): 0; Plant response rating, Corn (corn; [6]): 20; Plant response rating, Lambsquarters (lambsquarters; 125 g ai/ha, scale 0 to 100): 50; Plant response rating, Johnsongrass (johnsongrass; 125 g ai/ha, scale 0 to 100): 45; Plant response rating, Rice (rice; 500 g ai/ha): 15; Plant response rating, Soybean (soybean; 125 g ai/ha, scale 0 to 100): 0; Barnyardgrass plant response rating (barnyardgrass; [5]): 95; Plant response rating, Sedge, Umbrella (sedge, umbrella; 500 g ai/ha): 0; Plant response rating, Waterhemp (waterhemp; scale 0 to 100): 10; Plant response rating, Morningglory (morningglory; 125 g ai/ha, scale 0 to 100): 30
CC(C)c1cccc(C2CNC(=O)C2C(=O)Nc2cccc(F)c2F)c1 (centres unmarked) [Compound 319]		80				15	60	65	75	40	55	75	0	90	95	98	35	55	40	40	Plant response rating, Ragweed (ragweed; 125 g ai/ha, scale 0 to 100): 40; Plant response rating, Corn (corn; [6]): 40; Plant response rating, Lambsquarters (lambsquarters; 125 g ai/ha, scale 0 to 100): 65; Plant response rating, Johnsongrass (johnsongrass; 125 g ai/ha, scale 0 to 100): 65; Plant response rating, Rice (rice; 500 g ai/ha): 0; Plant response rating, Soybean (soybean; 125 g ai/ha, scale 0 to 100): 0; Barnyardgrass plant response rating (barnyardgrass; [5]): 95; Plant response rating, Sedge, Umbrella (sedge, umbrella; 500 g ai/ha): 0; Plant response rating, Waterhemp (waterhemp; scale 0 to 100): 35; Plant response rating, Morningglory (morningglory; 125 g ai/ha, scale 0 to 100): 45
O=C1NCC(c2cccc(C(F)(F)F)c2)C1C(=O)Nc1ccc(F)c(F)c1F (centres unmarked) [Compound 345]		90				40	100	75	85	35	75	90	0	80	95	95	5	25	0	35	Plant response rating, Ragweed (ragweed; 125 g ai/ha, scale 0 to 100): 15; Plant response rating, Corn (corn; [6]): 80; Plant response rating, Lambsquarters (lambsquarters; 125 g ai/ha, scale 0 to 100): 85; Plant response rating, Johnsongrass (johnsongrass; 125 g ai/ha, scale 0 to 100): 85; Plant response rating, Rice (rice; 1000 g ai/ha): 0; Plant response rating, Soybean (soybean; 125 g ai/ha, scale 0 to 100): 5; Barnyardgrass plant response rating (barnyardgrass; [5]): 95; Plant response rating, Sedge, Umbrella (sedge, umbrella; 1000 g ai/ha): 0; Plant response rating, Waterhemp (waterhemp; scale 0 to 100): 40; Plant response rating, Morningglory (morningglory; 125 g ai/ha, scale 0 to 100): 0
